Results taken from patent publication US10561638B2, “Methods for treating dependence” (Biotie Therapies, Inc., priority 2007, dated 2020).

Key:
[1] = Pilot observation studies in rats, acute and repeated oral administration
Experimental: Similarly, in a separate study, physostigmine (1, 3, 10 or 30 mg/kg p.o.) or vehicle were administered acutely to groups of 8 rats.
In pilot studies of repeated administration, nepicastat (100 mg/kg p.o.) or vehicle was administered twice daily (06:00 and 18:00 h) for 10 days (once on day 11) to groups of 8 rats. The weights of the animals were monitored throughout the study and, on day 5, the animals were observed ‘blind’ by an independent observer in order to assess any overt behavioural/physiological effects following repeated administration. In a separate study, groups of 8 rats received vehicle or physostigmine (0.3, 1, 3 or 10 mg/kg p.o.) using the same dosing schedule. The weights of the animals were monitored throughout the study.

[2] = system: mesenteric artery catecholamines and sympathetically-evoked responses; assay: Anesthetized beagle dogs, 30 mg/kg intraduodenally; assay type: in vivo
[3] = system: plasma renin activity; assay: Plasma renin activity in SHRs; assay type: in vivo, spontaneously hypertensive rats; conditions: 30 and 100 mg/kg/d p.o. for 5 days
Excerpt: The potency relationships in the left ventricle and mesenteric artery resulting from these in vivo studies strongly parallel those obtained from in vitro studies using purified DBH (see above). […] It was therefore of interest to assess whether decreasing norepinephrine levels with nepicastat would result in a decrease in plasma renin activity.

[4] = Plasma and tissue compound levels in dogs; assay type: in vivo, beagle dogs
Experimental: Male Beagle dogs (Marshall farms, North Rose, N.Y.) weighing between 9-16 kg were used in the study. The animals were allowed water ad libitum and given food once daily at ˜10.00 AM. Animals were randomly assigned to one of the following treatment groups (n=8/group): placebo (empty capsule), or nepicastat at 2 mg/kg b.i.d (4 mg/kg/day). Each animal received 2 doses daily, morning and afternoon (8-10 hours apart). Daily blood samples (10 ml) were drawn 6 h after the AM dose for measurement of plasma levels of nepicastat and catecholamines. The blood was collected in tubes containing heparin and glutathione and centrifuged at −4° C. within 1 h of collection. The plasma was separated and divided into two samples, one for the measurement of plasma catecholamines and the other for analysis of nepicastat.
Plasma norepinephrine (NE), dopamine (DA) and epinephrine (EPI) were analyzed by HPLC using electrochemical detection. Plasma concentration of nepicastat was determined by HPLC using electrochemical detection.
Thirty-two male beagle dogs, weighing 10-12 kg, were randomly assigned to one of the following 4 treatment groups (n=8 per group): nepicastat at 0 mg/kg/day (placebo), 10 mg/kg/day (5 mg/kg b.i.d.), 30 mg/kg (15 mg/kg b.i.d.), or 60 mg/kg/day (30 mg/kg b.i.d.). Dog numbers 1-16 were assigned as dose group A and dog numbers 17-32 as dose group B. The terminal surgery for tissue harvest was performed over 2 days with 16 animals studied per day. Two or 3 days before the first compound administration each dog was weighed and skin regions overlying both cephalic, saphenous and jugular veins were shaved. Dosing consisted of oral administration of one capsule with the second given 8-10 hr later. Dogs were dosed as scheduled on days 1-3. On day 4, prior to the AM dose, 3 ml of blood were obtained from a jugular vein for determination of baseline plasma compound levels. The dog was then administered the AM dose, and at 1, 2, 4 and 8 hr following the dose additional 3 ml blood samples were collected for determination of plasma compound levels. […]

[5] = system: aortic contractile response to phenylephrine; assay: Aortic contractile response in vitro to phenylephrine after 21 days treatment; assay type: in vivo, spontaneously hypertensive rats; conditions: 10 mg/kg p.o. daily for 21 days
Excerpt: The aortic contractile response in vitro to phenylephrine is impaired in spontaneously hypertensive rats (SHRs) relative to normotensive Wistar-Kyoto rats.

[6] = system: anesthetized beagle dogs; assay: Sympathetically-evoked responses in dogs after 4.5 days dosing; assay type: in vivo; conditions: 10 mg/kg/d for 4.5 days

Cl.NCc1c[nH]c(=S)n1[C@H]1CCc2c(F)cc(F)cc2C1 [nepicastat, (S)-5-Aminomethyl-1-(5,7-difluoro-1,2,3,4-tetrahydronaphth-2-yl)-2,3-dihydro-2-thioxo-1H-imidazole hydrochloride]
overt effects of repeated administration ([1]; nepicastat 100 mg/kg p.o. twice daily): no overt effects | irritability when handled ([1]; nepicastat 100 mg/kg p.o. twice daily, 11 days): more irritable than controls | mean loss in body weight ([1]; nepicastat 100 mg/kg p.o. twice daily, after 11 days): 28 g | overt behavioural/physiological changes ([1]; nepicastat 30 or 100 mg/kg p.o. acutely): did not induce any overt behavioural/physiological changes | responses to renal nerve stimulation and carotid artery occlusion ([2]; 30 mg/kg intraduodenally, up to 5 hours): did not significantly inhibit | mesenteric artery catecholamines ([2]; 5 hours after 30 mg/kg intraduodenally): significant decrease in norepinephrine levels and an increase in the dopamine/norepinephrine ratio | plasma renin activity [3]: did not alter plasma renin activity | time of peak plasma levels of the drug ([4]; 2 mg/kg bid, sampled 6 h after AM dose): 2 days post-dose | dose proportionality of nepicastat concentration in plasma and tissue ([4]; 10, 30, 60 mg/kg/day, Day 4 and Day 5): dose-proportional | levels of nepicastat in tissues vs plasma ([4]; Day 5, all tissues examined): higher than those in plasma | phenylephrine responsiveness of aorta [5]: restored phenylephrine responsiveness | blood pressure and heart rate increases in response to carotid artery occlusion [6]: no statistically significant decrease | blood pressure response to i.v. tyramine challenge [6]: only slight and non-significant inhibition | heart rate response to i.v. tyramine challenge [6]: significantly reduced the increase in heart rate
